Patent US10010504B2, “Compositions and methods including celecoxib and plumbagin relating to treatment of cancer” (The Penn State Research Foundation, priority 2013, dated 2018)

Test system: UACC 903 melanoma cells
Assay: Thermal stability in DMSO at 60° C., efficacy by MTS assay
Conditions: DMSO solution

heating time acceptable without decreasing efficacy	Structure (SMILES)	effect of prolonged exposure to 60° C. on compound activity
≤ 20 min	Cc1ccc(-c2cc(C(F)(F)F)nn2-c2ccc(S(N)(=O)=O)cc2)cc1 [celecoxib, 4-[5-(4-Methylphenyl)-3-(trifluoromethyl)-1H-pyrazol-1-yl]benzenesulfonamide]	–
–	CC1=CC(=O)c2c(O)cccc2C1=O [plumbagin, 5-hydroxy-2-methyl-1,4-napthoquinone]	did not affect compound activity
